{"source": "ChEMBL document CHEMBL5108051", "about": "“Improving the Antimicrobial Performance of Amphiphilic Cationic Antimicrobial Peptides Using Glutamic Acid Full-Scan and Positive Charge Compensation Strategies” (J Med Chem, 2022)", "key": {"Cell membrane [1]": {"test_system": "Cell membrane", "experiment": "Induction of outer membrane permeabilization to NPN in Staphylococcus aureus ATCC 25923 cells assessed as increase in fluorescence intensity measured within 1 min by NPN fluorescent dye based microplate reader assay", "format": "subcellular"}, "Cell membrane [2]": {"test_system": "Cell membrane", "experiment": "Induction of cell membrane disruption in Escherichia coli ATCC 25922 assessed as cell morphological damage measured after 30 mins by […] electron microscope analysis", "format": "subcellular"}, "Staphylococcus aureus [3]": {"test_system": "Staphylococcus aureus", "experiment": "Antibacterial activity against Staphylococcus aureus ATCC 25923 assessed as growth inhibition measured after 18 to 24 hrs by CLSI based broth microdilution method", "format": "functional", "conditions": "time 18-24 hrs"}, "[4]": {"experiment": "Acute toxicity in BALB/c mouse assessed as mortality at 80 mg/kg, ip administered as single dose measured for 7 days", "format": "organism-based", "conditions": "BALB/c, in vivo, time 7 day, read-out: Activity"}, "Escherichia coli [5]": {"test_system": "Escherichia coli", "experiment": "Antibacterial activity against rifampin resistant Escherichia coli ATCC 25922 assessed as fractional inhibitory concentration index in presence of rifampin by checkerboard assay", "format": "functional"}, "Staphylococcus aureus [6]": {"test_system": "Staphylococcus aureus", "experiment": "Antibacterial activity against rifampin resistant Staphylococcus aureus ATCC 25923 assessed as fractional inhibitory concentration index in presence of kanamycin by checkerboard assay", "format": "functional"}, "Staphylococcus aureus [7]": {"test_system": "Staphylococcus aureus", "experiment": "Antibacterial activity against gentamicin resistant Staphylococcus aureus ATCC 25923 assessed as fractional inhibitory concentration index in presence of gentamicin by checkerboard assay", "format": "functional"}, "[8]": {"experiment": "Acute toxicity in BALB/c mouse assessed as pathological changes in heart at 20 to 80 mg/kg, ip administered as single dose measured for 7 days by H and E staining method", "format": "organism-based", "conditions": "in vivo, 168 h, dose 20-80 mg/kg, time 7 day"}, "Staphylococcus aureus [9]": {"test_system": "Staphylococcus aureus", "experiment": "Antibacterial activity against Staphylococcus aureus ATCC 25923 assessed as fractional inhibitory concentration index in presence of vancomycin by checkerboard assay", "format": "functional"}, "Escherichia coli [10]": {"test_system": "Escherichia coli", "experiment": "Induction of cell membrane damage in Escherichia coli ATCC 25922 assessed as increase in nucleic acid leakage by microplate reader assay", "format": "functional, organism-based", "conditions": "time 0-6 hrs, TDE = time-dependent effect"}, "Staphylococcus aureus [11]": {"test_system": "Staphylococcus aureus", "experiment": "Antibacterial activity against Staphylococcus aureus ATCC 25923 assessed as resistance development measured after 15 passages at sub-MIC concentration by resistance development assay", "format": "functional, organism-based"}, "Escherichia coli [12]": {"test_system": "Escherichia coli", "experiment": "Antibacterial activity against Escherichia coli ATCC 25922 assessed as growth inhibition measured after 18 to 24 hrs by CLSI based broth microdilution method", "format": "functional", "conditions": "time 18-24 hrs"}, "Klebsiella pneumoniae": {"test_system": "Klebsiella pneumoniae", "experiment": "Antibacterial activity against Klebsiella pneumoniae ATCC 700603 assessed as growth inhibition measured after 18 to 24 hrs by CLSI based broth microdilution method", "format": "functional", "conditions": "time 18-24 hrs"}, "Escherichia coli [13]": {"test_system": "Escherichia coli", "experiment": "Antibacterial activity against Escherichia coli ATCC 25922 assessed as fractional inhibitory concentration index in presence of rifampin by checkerboard assay", "format": "functional"}, "[14]": {"experiment": "Retention time of the compound by RP-HPLC analysis", "format": "physicochemical"}, "Cell membrane [15]": {"test_system": "Cell membrane", "experiment": "Induction of inner membrane permeabilization in Escherichia coli ML-35 ATCC 43837 assessed as increase in absorbance at 1 to 4 times MIC measured at 420 nm in presence of ONPG by microplate reader assay", "format": "subcellular", "conditions": "DDE = dose-dependent effect"}, "Staphylococcus aureus [16]": {"test_system": "Staphylococcus aureus", "experiment": "Antibacterial activity against Staphylococcus aureus ATCC 25923 assessed as fractional inhibitory concentration index in presence of kanamycin by checkerboard assay", "format": "functional"}, "Staphylococcus aureus [17]": {"test_system": "Staphylococcus aureus", "experiment": "Antibacterial activity against gentamicin resistant Staphylococcus aureus ATCC 25923 assessed as fractional inhibitory concentration index in presence of kanamycin by checkerboard assay", "format": "functional"}, "Escherichia coli [18]": {"test_system": "Escherichia coli", "experiment": "Antibacterial activity against Escherichia coli ATCC 25922 assessed as resistance development measured after 15 passages at sub-MIC concentration by resistance development assay", "format": "functional, organism-based"}, "Staphylococcus aureus [19]": {"test_system": "Staphylococcus aureus", "experiment": "Antibacterial activity against rifampin resistant Staphylococcus aureus ATCC 25923 assessed as fractional inhibitory concentration index in presence of vancomycin by checkerboard assay", "format": "functional"}, "Escherichia coli [20]": {"test_system": "Escherichia coli", "experiment": "Antibacterial activity against gentamicin resistant Escherichia coli ATCC 25922 assessed as fractional inhibitory concentration index in presence of kanamycin by checkerboard assay", "format": "functional"}, "Cell membrane [21]": {"test_system": "Cell membrane", "experiment": "Induction of cell membrane disruption in Escherichia coli ATCC 25922 assessed as increase in PI uptake measured after 30 to 120 mins by propidium iodide staining based FACS flow cytometry analysis (reference value: 6.0 %)", "format": "subcellular", "conditions": "time 30-120 min"}, "Staphylococcus aureus [22]": {"test_system": "Staphylococcus aureus", "experiment": "Antibacterial activity against Staphylococcus aureus ATCC 25923 assessed as fractional inhibitory concentration index in presence of gentamicin by checkerboard assay", "format": "functional"}, "Cell membrane [23]": {"test_system": "Cell membrane", "experiment": "Induction of cell membrane disruption in Staphylococcus aureus ATCC 25923 assessed as cell morphological damage measured after 120 mins by […] electron microscope analysis", "format": "subcellular"}, "Escherichia coli [24]": {"test_system": "Escherichia coli", "experiment": "Antibacterial activity against gentamicin resistant Escherichia coli ATCC 25922 assessed as fractional inhibitory concentration index in presence of rifampin by checkerboard assay", "format": "functional"}, "Cell membrane [25]": {"test_system": "Cell membrane", "experiment": "Induction of cell membrane disruption in Staphylococcus aureus ATCC 25923 assessed as increase in PI uptake measured after 30 to 120 mins by propidium iodide staining based FACS flow cytometry analysis (reference value: 15%)", "format": "subcellular", "conditions": "time 30-120 min"}, "Pseudomonas aeruginosa": {"test_system": "Pseudomonas aeruginosa", "experiment": "Antibacterial activity against Pseudomonas aeruginosa ATCC 27853 assessed as growth inhibition measured after 18 to 24 hrs by CLSI based broth microdilution method", "format": "functional", "conditions": "time 18-24 hrs"}, "Cell membrane [26]": {"test_system": "Cell membrane", "experiment": "Induction of cell membrane disruption in Escherichia coli ATCC 25922 assessed as cell morphological damage measured after 120 mins by […] electron microscope analysis", "format": "subcellular"}, "[27]": {"experiment": "Stability of the compound in mouse serum at 10 mM assessed as half life by RP-HPLC analysis", "format": "ADME, cell-free"}, "Staphylococcus aureus [28]": {"test_system": "Staphylococcus aureus", "experiment": "Antibacterial activity against gentamicin resistant Staphylococcus aureus ATCC 25923 assessed as fractional inhibitory concentration index in presence of rifampin by checkerboard assay", "format": "functional"}, "Escherichia coli [29]": {"test_system": "Escherichia coli", "experiment": "Antibacterial activity against gentamicin resistant Escherichia coli ATCC 25922 assessed as fractional inhibitory concentration index in presence of gentamicin by checkerboard assay", "format": "functional"}, "Escherichia coli [30]": {"test_system": "Escherichia coli", "experiment": "Antibacterial activity against Escherichia coli ATCC 25922 assessed as fractional inhibitory concentration index in presence of kanamycin by checkerboard assay", "format": "functional"}, "Escherichia coli [31]": {"test_system": "Escherichia coli", "experiment": "Antibacterial activity against Escherichia coli ATCC 25922 assessed as fractional inhibitory concentration index in presence of vancomycin by checkerboard assay", "format": "functional"}, "Bacillus subtilis": {"test_system": "Bacillus subtilis", "experiment": "Antibacterial activity against Bacillus subtilis ATCC 23857 assessed as growth inhibition measured after 18 to 24 hrs by CLSI based broth microdilution method", "format": "functional", "conditions": "time 18-24 hrs"}, "Staphylococcus aureus [32]": {"test_system": "Staphylococcus aureus", "experiment": "Induction of cell membrane damage in Staphylococcus aureus ATCC 25923 assessed as increase in nucleic acid leakage by microplate reader assay", "format": "functional, organism-based", "conditions": "time 0-6 hrs, TDE = time-dependent effect"}, "Escherichia coli [33]": {"test_system": "Escherichia coli", "experiment": "Antibacterial activity against rifampin resistant Escherichia coli ATCC 25922 assessed as fractional inhibitory concentration index in presence of gentamicin by checkerboard assay", "format": "functional"}, "Escherichia coli [34]": {"test_system": "Escherichia coli", "experiment": "Antibacterial activity against gentamicin resistant Escherichia coli ATCC 25922 assessed as fractional inhibitory concentration index in presence of vancomycin by checkerboard assay", "format": "functional"}, "Staphylococcus aureus [35]": {"test_system": "Staphylococcus aureus", "experiment": "In vivo antimicrobial activity against Staphylococcus aureus ATCC 25923 infected in BALB/C mouse pulmonary infection model at 5 to 10 mg/kg, ip", "format": "functional, organism-based", "conditions": "dose 5-10 mg/kg"}, "Staphylococcus aureus [36]": {"test_system": "Staphylococcus aureus", "experiment": "Antibacterial activity against rifampin resistant Staphylococcus aureus ATCC 25923 assessed as fractional inhibitory concentration index in presence of rifampin by checkerboard assay", "format": "functional"}}, "note": "Calls of active or inactive are those of the source. The calls are words filed in the database; no cut-off is given here. Peptide text beside a SMILES is read from it.", "data": [{"smiles": "CC[C@H](C)[C@H](NC(=O)[C@@H]1CCCN1C(=O)[C@H](CC(C)C)NC(=O)[C@@H](N)Cc1ccccc1)C(=O)N[C@H](C(=O)N[C@@H](C)C(=O)N[C@@H](CCCCN)C(=O)N[C@@H](CC(C)C)C(=O)N[C@@H](CC(C)C)C(=O)N[C@@H](CO)C(=O)NCC(=O)N[C@@H](CC(C)C)C(=O)N[C@@H](CC(C)C)C(N)=O)C(C)C", "note": "(H-FLPIVAKLLSGLL-NH2)", "values": [{"measurement": "Activity", "setting": "Cell membrane [1]", "value": "Active"}, {"measurement": "Activity", "setting": "Cell membrane [2]", "value": "Active"}, {"measurement": "MIC", "setting": "Staphylococcus aureus [3]", "value": 4, "unit": "µM"}, {"measurement": "mortality at 168 h", "setting": "[4]", "value": 100, "unit": "%"}, {"measurement": "fractional inhibitory concentration index (FICI)", "setting": "Escherichia coli [5]", "value": 1}, {"measurement": "fractional inhibitory concentration index (FICI)", "setting": "Staphylococcus aureus [6]", "value": 0.5625}, {"measurement": "fractional inhibitory concentration index (FICI)", "setting": "Staphylococcus aureus [7]", "value": 0.75}, {"measurement": "Activity", "setting": "[8]", "value": "Non-Toxic"}, {"measurement": "fractional inhibitory concentration index (FICI)", "setting": "Staphylococcus aureus [9]", "value": 1.0625}, {"measurement": "Activity", "setting": "Escherichia coli [10]", "value": "Tde"}, {"measurement": "Activity", "setting": "Staphylococcus aureus [11]", "value": "Active"}, {"measurement": "MIC", "setting": "Escherichia coli [12]", "value": 32, "unit": "µM"}, {"measurement": "MIC", "setting": "Klebsiella pneumoniae", "value": "> 128", "unit": "µM"}, {"measurement": "fractional inhibitory concentration index (FICI)", "setting": "Escherichia coli [13]", "value": 1.25}, {"measurement": "Retention_time", "setting": "[14]", "value": 19.445, "unit": "min"}, {"measurement": "Activity", "setting": "Cell membrane [15]", "value": "Dde"}, {"measurement": "fractional inhibitory concentration index (FICI)", "setting": "Staphylococcus aureus [16]", "value": 0.75}, {"measurement": "fractional inhibitory concentration index (FICI)", "setting": "Staphylococcus aureus [17]", "value": 0.75}, {"measurement": "Activity", "setting": "Escherichia coli [18]", "value": "Active"}, {"measurement": "fractional inhibitory concentration index (FICI)", "setting": "Staphylococcus aureus [19]", "value": 0.75}, {"measurement": "fractional inhibitory concentration index (FICI)", "setting": "Escherichia coli [20]", "value": 1}, {"measurement": "Activity", "setting": "Cell membrane [21]", "value": 78.3, "unit": "%"}, {"measurement": "fractional inhibitory concentration index (FICI)", "setting": "Staphylococcus aureus [22]", "value": 1}, {"measurement": "Activity", "setting": "Cell membrane [23]", "value": "Active"}, {"measurement": "fractional inhibitory concentration index (FICI)", "setting": "Escherichia coli [24]", "value": 0.625}, {"measurement": "Activity", "setting": "Cell membrane [25]", "value": 24.1, "unit": "%"}, {"measurement": "MIC", "setting": "Pseudomonas aeruginosa", "value": 128, "unit": "µM"}, {"measurement": "Activity", "setting": "Cell membrane [26]", "value": "Active"}, {"measurement": "half-life at 10000 µM", "setting": "[27]", "value": 5.55, "unit": "h"}, {"measurement": "fractional inhibitory concentration index (FICI)", "setting": "Staphylococcus aureus [28]", "value": 0.75}, {"measurement": "fractional inhibitory concentration index (FICI)", "setting": "Escherichia coli [29]", "value": 1}, {"measurement": "fractional inhibitory concentration index (FICI)", "setting": "Escherichia coli [30]", "value": 1.125}, {"measurement": "fractional inhibitory concentration index (FICI)", "setting": "Escherichia coli [31]", "value": 0.625}, {"measurement": "MIC", "setting": "Bacillus subtilis", "value": 4, "unit": "µM"}, {"measurement": "Activity", "setting": "Staphylococcus aureus [32]", "value": "Tde"}, {"measurement": "fractional inhibitory concentration index (FICI)", "setting": "Escherichia coli [33]", "value": 0.625}, {"measurement": "fractional inhibitory concentration index (FICI)", "setting": "Escherichia coli [34]", "value": 0.75}, {"measurement": "Activity", "setting": "Staphylococcus aureus [35]", "value": "Active"}, {"measurement": "fractional inhibitory concentration index (FICI)", "setting": "Staphylococcus aureus [36]", "value": 1}]}]}
